Experiments:
Format in all cases: in vivo
Settings in all cases: rated four to five weeks after treatment
[1] = tested on: SETARIA VIRIDIS, (L) BEAU; assay: Preemergence herbicidal evaluation, SETVI (Foxtail, Green); design: key to SETVI: visual rating scale 0-9 vs control
From the text: (§1) Results of herbicide evaluation are expressed on a rating scale (0-9). The scale is based upon a visual observation of plant stand, vigor, malformation, size, chlorosis and overall plant appearance as compared with a control.
(§2) The preemergence herbicidal activity of the test compounds of the present invention is exemplified by the following tests in which the seeds of a variety of monocotyledonous and dicotyledonous plants are separately mixed with potting soil and planted on top of approximately one inch of soil in separate pint cups. After planting, the cups are sprayed with the selected aqueous acetone solution containing test compound in sufficient quantity to provide the equivalent of about 0.125 to 0.50 kg per hectare of test compound per cup. The treated cups are then placed on greenhouse benches, watered and cared for in accordance with conventional greenhouse procedures. From four to five weeks after treatment, the tests are terminated and each cup is examined and rated according to the rating system provided in Example 42.

IPOMOEA SPP. = assay: Preemergence herbicidal evaluation, IPOSS (Morningglory Spp.); design: key to IPOSS: visual rating scale 0-9 vs control
From the text: as §1, §2

[2] = tested on: AMBROSIA ARTEMISIIFOLIA, L.; assay: Preemergence herbicidal evaluation, AMBEL (Ragweed, Common); design: key to AMBEL: visual rating scale 0-9 vs control
From the text: as §1, §2

[3] = tested on: TRITICUM AESTIVUM, CV. APOLLO; assay: Preemergence herbicidal evaluation, TRZAWO (Wheat, Winter, CV. APOLLO); design: key to TRZAWO: visual rating scale 0-9 vs control
From the text: as §1, §2

GALIUM APARINE = assay: Preemergence herbicidal evaluation, GALAP (Galium); design: key to GALAP: visual rating scale 0-9 vs control
From the text: as §1, §2

CHENOPODIUM ALBUM, L. = assay: Preemergence herbicidal evaluation, CHEAL (Lambsquarters, Common); design: key to CHEAL: visual rating scale 0-9 vs control
From the text: as §1, §2

[4] = tested on: ABUTILON THEOPHRASTI, MEDIC.; assay: Preemergence herbicidal evaluation, ABUTH (Velvetleaf); design: key to ABUTH: visual rating scale 0-9 vs control
From the text: as §1, §2

[5] = tested on: TRITICUM AESTIVUM, CV. APOLLO; assay: Postemergence herbicidal evaluation, TRZAWO (Wheat, Winter, CV. APOLLO)
Experimental: (§3) In the tests, seedling plants are grown in jiffy flats for about two weeks. The test compounds are dispersed in 50/50 acetone/water mixtures containing 0.5% TWEEN®20, a polyoxyethylene sorbitan monolaurate surfactant of Atlas Chemical Industries, in sufficient quantities to provide the equivalent of about 0.125 kg to 0.500 kg per hectare of active compound when applied to the plants through a spray nozzle operating at 40 psi for a predetermined time. After spraying, the plants are placed on greenhouse benches and are cared for in the usual manner, commensurate with conventional greenhouse practices. From four to five weeks after treatment, the seedling plants are examined and rated according to the rating system set forth below. Where more than one test is involved for a given compound, the data are averaged.
as §1

CASSIA OBTUSIFOLIA, L. [6] = assay: Preemergence herbicidal evaluation, CASOB (Sicklepod); design: key to CASOB: visual rating scale 0-9 vs control
From the text: as §1, §2

[7] = tested on: ECHINOCHLOA CRUS-GALLI, (L) BEAU; assay: Preemergence herbicidal evaluation, ECHCG (Barnyardgrass); design: key to ECHCG: visual rating scale 0-9 vs control
From the text: as §1, §2

ZEA MAYS L. = assay: Preemergence herbicidal evaluation, ZEAMX (Corn, Field); design: key to ZEAMX: visual rating scale 0-9 vs control
From the text: as §1, §2

[8] = tested on: ABUTILON THEOPHRASTI, MEDIC.; assay: Postemergence herbicidal evaluation, ABUTH (Velvetleaf)
Experimental: as §3, §1

[9] = tested on: ORYZA SATIVA, L. TEBONNET; assay: Preemergence herbicidal evaluation, ORYSAT (Rice, Tebonnet); design: key to ORYSAT: visual rating scale 0-9 vs control
From the text: as §1, §2

[10] = tested on: SETARIA VIRIDIS, (L) BEAU; assay: Postemergence herbicidal evaluation, SETVI (Foxtail, Green)
Experimental: as §3, §1

[11] = tested on: GLYCINE MAX(L)MERR. CV. WILLIAMS; assay: Preemergence herbicidal evaluation, GLXMAW (Soybean, Williams); design: key to GLXMAW: visual rating scale 0-9 vs control
From the text: as §1, §2

[12] = tested on: ECHINOCHLOA CRUS-GALLI, (L) BEAU; assay: Postemergence herbicidal evaluation, ECHCG (Barnyardgrass)
Experimental: as §3, §1

CASSIA OBTUSIFOLIA, L. [13] = assay: Postemergence herbicidal evaluation, CASOB (Sicklepod)
Experimental: as §3, §1

SMILES: CC(C)OC(=O)Cn1c(=O)n(C)c(=O)n(-c2cc(N=c3sc(=O)n4n3CCCC4)c(F)cc2Cl)c1=O [Compound 13, Isopropyl 3-{2-chloro-4-fluoro-5-[(tetra-hydro-3-oxo-1H,3H-[1,3,4]thiadiazolo[3,4-a]pyridazin-1-ylidene)amino]phenyl}tetra-hydro-5-methyl-2,4,6-trioxo-s-triazine-1(2H)-acetate]
- SETVI ([1]; Rate 0.125 kg/ha): 0.0
- SETVI ([1]; Rate 0.250 kg/ha): 7.0
- SETVI ([1]; Rate 0.500 kg/ha): 7.0
- IPOSS (IPOMOEA SPP.; Rate 0.125 kg/ha): 2.0
- IPOSS (IPOMOEA SPP.; Rate 0.250 kg/ha): 5.0
- IPOSS (IPOMOEA SPP.; Rate 0.500 kg/ha): 6.0
- AMBEL ([2]; Rate 0.125 kg/ha): 0.0
- AMBEL ([2]; Rate 0.250 kg/ha): 3.0
- AMBEL ([2]; Rate 0.500 kg/ha): 8.0
- TRZAWO ([3]; Rate 0.125 kg/ha): 0.0
- TRZAWO ([3]; Rate 0.250 kg/ha): 0.0
- TRZAWO ([3]; Rate 0.500 kg/ha): 1.0
- GALAP (GALIUM APARINE; Rate 0.125 kg/ha): 9.0
- GALAP (GALIUM APARINE; Rate 0.250 kg/ha): 8.0
- GALAP (GALIUM APARINE; Rate 0.500 kg/ha): 9.0
- CHEAL (CHENOPODIUM ALBUM, L.; Rate 0.125 kg/ha): 9.0
- CHEAL (CHENOPODIUM ALBUM, L.; Rate 0.250 kg/ha): 9.0
- CHEAL (CHENOPODIUM ALBUM, L.; Rate 0.500 kg/ha): 9.0
- ABUTH ([4]; Rate 0.125 kg/ha): 9.0
- ABUTH ([4]; Rate 0.250 kg/ha): 9.0
- ABUTH ([4]; Rate 0.500 kg/ha): 9.0
- Herbicide rating (0-9) TRZAWO ([5]; 0.125 kg/ha): 3.5
- Herbicide rating (0-9) TRZAWO ([5]; 0.250 kg/ha): 3.5
- Herbicide rating (0-9) TRZAWO ([5]; 0.500 kg/ha): 3.5
- CASOB (CASSIA OBTUSIFOLIA, L. [6]; Rate 0.125 kg/ha): 5.0
- CASOB (CASSIA OBTUSIFOLIA, L. [6]; Rate 0.250 kg/ha): 9.0
- CASOB (CASSIA OBTUSIFOLIA, L. [6]; Rate 0.500 kg/ha): 9.0
- ECHCG ([7]; Rate 0.125 kg/ha): 0.0
- ECHCG ([7]; Rate 0.250 kg/ha): 0.0
- ECHCG ([7]; Rate 0.500 kg/ha): 0.0
- ZEAMX (ZEA MAYS L.; Rate 0.125 kg/ha): 0.0
- ZEAMX (ZEA MAYS L.; Rate 0.250 kg/ha): 0.0
- ZEAMX (ZEA MAYS L.; Rate 0.500 kg/ha): 1.0
- Herbicide rating (0-9) ABUTH ([8]; 0.125 kg/ha): 9.0
- Herbicide rating (0-9) ABUTH ([8]; 0.250 kg/ha): 9.0
- Herbicide rating (0-9) ABUTH ([8]; 0.500 kg/ha): 9.0
- ORYSAT ([9]; Rate 0.125 kg/ha): 0.0
- ORYSAT ([9]; Rate 0.250 kg/ha): 1.0
- ORYSAT ([9]; Rate 0.500 kg/ha): 2.0
- Herbicide rating (0-9) SETVI ([10]; 0.125 kg/ha): 1.0
- Herbicide rating (0-9) SETVI ([10]; 0.250 kg/ha): 1.0
- Herbicide rating (0-9) SETVI ([10]; 0.500 kg/ha): 1.0
- GLXMAW ([11]; Rate 0.125 kg/ha): 0.0
- GLXMAW ([11]; Rate 0.250 kg/ha): 0.0
- GLXMAW ([11]; Rate 0.500 kg/ha): 0.0
- Herbicide rating (0-9) ECHCG ([12]; 0.125 kg/ha): 0.0
- Herbicide rating (0-9) ECHCG ([12]; 0.250 kg/ha): 0.0
- Herbicide rating (0-9) ECHCG ([12]; 0.500 kg/ha): 0.0

SMILES: CCOC(=O)Cn1c(=O)[nH]c(=O)n(-c2ccc(F)c(N3C(=O)C4=C(CCCC4)C3=O)c2)c1=O [Compound 9, Ethyl 3-[3-(1-cyclohexene-1,2-dicarbox-imido)-4-fluorophenyl]tetrahydro-2,4,6-trioxo-s-triazine-1(2H)-acetate]
- Herbicide rating (0-9) SETVI ([1]; 0.125 kg/ha): 0.0
- Herbicide rating (0-9) SETVI ([1]; 0.250 kg/ha): 0.0
- Herbicide rating (0-9) SETVI ([1]; 0.500 kg/ha): 0.0
- Herbicide rating (0-9) IPOSS (IPOMOEA SPP.; 0.125 kg/ha): 0.0
- Herbicide rating (0-9) IPOSS (IPOMOEA SPP.; 0.250 kg/ha): 0.0
- Herbicide rating (0-9) IPOSS (IPOMOEA SPP.; 0.500 kg/ha): 0.0
- Herbicide rating (0-9) AMBEL ([2]; 0.125 kg/ha): 0.0
- Herbicide rating (0-9) AMBEL ([2]; 0.250 kg/ha): 0.0
- Herbicide rating (0-9) AMBEL ([2]; 0.500 kg/ha): 0.0
- Herbicide rating (0-9) CASOB (CASSIA OBTUSIFOLIA, L. [13]; 0.125 kg/ha): 0.0
- Herbicide rating (0-9) CASOB (CASSIA OBTUSIFOLIA, L. [13]; 0.250 kg/ha): 0.0
- Herbicide rating (0-9) CASOB (CASSIA OBTUSIFOLIA, L. [13]; 0.500 kg/ha): 0.0
- Herbicide rating (0-9) TRZAWO ([3]; 0.125 kg/ha): 0.0
- Herbicide rating (0-9) TRZAWO ([3]; 0.250 kg/ha): 0.0
- Herbicide rating (0-9) TRZAWO ([3]; 0.500 kg/ha): 0.0
- Herbicide rating (0-9) GALAP (GALIUM APARINE; 0.125 kg/ha): 0.0
- Herbicide rating (0-9) GALAP (GALIUM APARINE; 0.250 kg/ha): 0.0
- Herbicide rating (0-9) GALAP (GALIUM APARINE; 0.500 kg/ha): 0.0
- Herbicide rating (0-9) CHEAL (CHENOPODIUM ALBUM, L.; 0.125 kg/ha): 0.0
- Herbicide rating (0-9) CHEAL (CHENOPODIUM ALBUM, L.; 0.250 kg/ha): 0.0
- Herbicide rating (0-9) CHEAL (CHENOPODIUM ALBUM, L.; 0.500 kg/ha): 0.0
- Herbicide rating (0-9) ABUTH ([4]; 0.125 kg/ha): 0.0
- Herbicide rating (0-9) ABUTH ([4]; 0.250 kg/ha): 0.0
- Herbicide rating (0-9) ABUTH ([4]; 0.500 kg/ha): 0.0
- Herbicide rating (0-9) CASOB (CASSIA OBTUSIFOLIA, L. [6]; 0.125 kg/ha): 0.0
- Herbicide rating (0-9) CASOB (CASSIA OBTUSIFOLIA, L. [6]; 0.250 kg/ha): 0.0
- Herbicide rating (0-9) CASOB (CASSIA OBTUSIFOLIA, L. [6]; 0.500 kg/ha): 0.0
- Herbicide rating (0-9) ECHCG ([7]; 0.125 kg/ha): 0.0
- Herbicide rating (0-9) ECHCG ([7]; 0.250 kg/ha): 0.0
- Herbicide rating (0-9) ECHCG ([7]; 0.500 kg/ha): 0.0
- Herbicide rating (0-9) ZEAMX (ZEA MAYS L.; 0.125 kg/ha): 0.0
- Herbicide rating (0-9) ZEAMX (ZEA MAYS L.; 0.250 kg/ha): 0.0
- Herbicide rating (0-9) ZEAMX (ZEA MAYS L.; 0.500 kg/ha): 0.0
- Herbicide rating (0-9) ORYSAT ([9]; 0.125 kg/ha): 0.0
- Herbicide rating (0-9) ORYSAT ([9]; 0.250 kg/ha): 0.0
- Herbicide rating (0-9) ORYSAT ([9]; 0.500 kg/ha): 0.0
- Herbicide rating (0-9) SETVI ([10]; 0.125 kg/ha): 0.0
- Herbicide rating (0-9) SETVI ([10]; 0.250 kg/ha): 0.0
- Herbicide rating (0-9) SETVI ([10]; 0.500 kg/ha): 0.0
- Herbicide rating (0-9) GLXMAW ([11]; 0.125 kg/ha): 0.0
- Herbicide rating (0-9) GLXMAW ([11]; 0.250 kg/ha): 0.0
- Herbicide rating (0-9) GLXMAW ([11]; 0.500 kg/ha): 0.0
- Herbicide rating (0-9) ECHCG ([12]; 0.125 kg/ha): 0.0
- Herbicide rating (0-9) ECHCG ([12]; 0.250 kg/ha): 0.0
- Herbicide rating (0-9) ECHCG ([12]; 0.500 kg/ha): 0.0

Source: patent publication EP0745599A2, “1-(3-Heterocyclylphenyl)-s-triazine-2,4,6-oxo or thiotrione herbicidal agents” (American Cyanamid Company, priority 1995, dated 1996)
